Source: ChEMBL document CHEMBL1154515, “Gamma-pyrone natural products--a privileged compound class provided by nature” (Bioorg Med Chem, 2009)
Values after ≈ are worked out from the molar mass of the structure shown. Blank lines part the entries; values can stand above or below the compound they belong to. Active and inactive are the calls of the source. The rule behind the calls is not given here.

Assays:
T-cell = experiment: Inhibition of Concanavalin A-induced T cell proliferation; type: functional, cell-based
B-cell = experiment: Inhibition of LPS-induced B cell proliferation; type: functional, cell-based
[1] = test system: Leptinotarsa decemlineata; experiment: Insecticidal activity against Leptinotarsa decemlineata at 1000 ppm; type: functional, organism-based
Helicobacter pylori = experiment: Antimicrobial activity against Helicobacter pylori; type: functional
HT-1080 = experiment: Cytotoxicity against human HT1080 cells; type: functional, cell-based
[2] = target: T1, Potassium voltage-gated channel subfamily A member 3 (Homo sapiens, UniProt P22001); experiment: Inhibition of voltage-gated Kv1.3 potassium channel expressed in CHO cells by 86Rb efflux experiment; type: cell-based
[3] = Toxicity in ip dosed rat; type: organism-based; settings: in vivo
[4] = Depolarization of human T cells by electrophysiological method; type: functional, cell-based; settings: T-cell
[5] = target: T1, Potassium voltage-gated channel subfamily A member 3; experiment: Antagonist activity at voltage-gated Kv1.3 potassium channel; type: functional
[6] = Inhibition of NADH fumarate reductase
[7] = test system: Leptinotarsa decemlineata; experiment: Insecticidal activity against Leptinotarsa decemlineata; type: functional

T1 sequence (P22001 whole entry): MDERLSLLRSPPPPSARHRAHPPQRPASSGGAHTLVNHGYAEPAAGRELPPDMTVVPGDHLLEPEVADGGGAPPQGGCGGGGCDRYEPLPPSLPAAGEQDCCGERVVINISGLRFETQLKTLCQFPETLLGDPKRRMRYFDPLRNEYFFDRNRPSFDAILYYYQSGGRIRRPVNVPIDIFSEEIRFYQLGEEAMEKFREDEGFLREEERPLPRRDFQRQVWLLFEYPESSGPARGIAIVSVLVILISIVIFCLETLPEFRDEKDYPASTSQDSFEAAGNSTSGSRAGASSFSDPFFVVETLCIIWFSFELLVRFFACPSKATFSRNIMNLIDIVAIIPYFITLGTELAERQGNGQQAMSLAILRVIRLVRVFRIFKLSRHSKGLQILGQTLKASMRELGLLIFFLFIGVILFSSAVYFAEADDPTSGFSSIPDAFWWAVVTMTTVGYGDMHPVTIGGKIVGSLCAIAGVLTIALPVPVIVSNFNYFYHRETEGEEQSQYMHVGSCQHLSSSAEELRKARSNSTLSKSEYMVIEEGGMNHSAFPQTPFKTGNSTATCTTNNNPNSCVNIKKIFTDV

SMILES: COc1oc([C@@H]2C[C@@]3(CO2)[C@H](c2ccc([N+](=O)[O-])cc2)[C@]2(C)C=C(C)C=C(C)[C@@H]23)c(C)c(=O)c1C
- IC50 (T-cell): 200 nM

SMILES: COc1oc([C@H]2C[C@@]3(CO2)[C@H](c2ccc([N+](=O)[O-])cc2)[C@]2(C)C=C(C)C=C(C)[C@@H]23)c(C)c(=O)c1C
- IC50 (B-cell): 800 nM

SMILES: C=C1CC[C@@H]2[C@](C)(CC[C@H](O)[C@@]2(C)CCC=C(C)C)[C@@H]1Cc1c(OC)oc(C)c(C)c1=O
- Activity [1]: inactive

- MIC (Helicobacter pylori): 0.1 ng/mL (≈ 0.25 nM)
SMILES: C/C=C(\C)[C@H](O)[C@H](C)/C=C(C)/C=C/C/C(C)=C/Cc1oc(OC)c(C)c(=O)c1C [ACTINOPYRONE A]

- MIC (Helicobacter pylori): 0.1 ng/mL (≈ 0.259 nM)
SMILES: C/C=C(\C)[C@H](O)[C@H](C)/C=C(C)/C=C/C/C(C)=C/Cc1oc(OC)cc(=O)c1C [ACTINOPYRONE B]

SMILES: C/C=C(\C)[C@H](O)[C@H](C)/C=C(C)/C=C/C/C(C)=C/Cc1oc(OC)c(CC)c(=O)c1C [ACTINOPYRONE C]
- MIC (Helicobacter pylori): 0.1 ng/mL (≈ 0.241 nM)

SMILES: COc1oc([C@H]2C/C(=C/C(C)=C\c3ccc([N+](=O)[O-])cc3)CO2)c(C)c(=O)c1C [ALLOAUREOTHIN]
- IC50 (HT-1080): 30000 nM

- IC50 [2]: 3700 nM
SMILES: C=C1CC[C@@H]2[C@](C)(CC[C@H]3OC=CC[C@]23C)[C@@H]1Cc1c(OC)oc(C)c(C)c1=O [CANDELALIDE A]

- IC50 [2]: 1200 nM
SMILES: C=C1CC[C@@H]2[C@](C)(CC[C@H]3OC(C(C)(C)O)=C(O)C[C@]23C)[C@@H]1Cc1c(OC)oc(C)c(C)c1=O [CANDELALIDE B]

- IC50 [2]: 2500 nM
SMILES: C=C1CC[C@@H]2[C@](C)(CC[C@H]3OC(C(C)(C)O)=CC[C@]23C)[C@H]1Cc1c(OC)oc(C)c(C)c1=O [CANDELALIDE C]

SMILES: C=C1CC[C@@H]2[C@@](C)(CCC(C)(C)O)[C@@H](O)CC[C@@]2(C)[C@H]1Cc1c(OC)oc(C)c(C(=O)OC)c1=O [COLLECTOTRICHIN A]
- LD50 [3]: 16 mg/kg

- EC50 [4]: 500 nM
- IC50 [5]: 3900 nM
SMILES: C=C1CC[C@H]2[C@](C)(CCC=C(C)C)[C@@H](OC(C)=O)CC[C@]2(C)[C@@H]1Cc1c(OC)oc(C)c(C)c1=O [NALANTHALIDE]

SMILES: COc1oc([C@H]2C/C(=C/C(C)=C/C(C)=C/C(C)=C/c3ccc([N+](=O)[O-])cc3)CO2)c(C)c(=O)c1C [SPECTINABILIN]
- IC50 [6]: 15 nM

SMILES: C=C1CC[C@H]2[C@](C)(CCC=C(C)C)[C@@H](OC(=O)[C@H](OC)[C@@H](C)CC)CC[C@]2(C)[C@@H]1Cc1c(OC)oc(C)c(C)c1=O [VIRIDOXIN A]
- LC50 [7]: 39700 ng/mL (≈ 69600 nM)

SMILES: C=C1CC[C@H]2[C@](C)(CCC=C(C)C)[C@@H](OC(=O)[C@H](O)[C@@H](C)CC)CC[C@]2(C)[C@@H]1Cc1c(OC)oc(C)c(C)c1=O [VIRIDOXIN B]
- LC50 [7]: 50700 ng/mL (≈ 91100 nM)
